Laboratory results published in ChEMBL document CHEMBL3046414, “Synthesis, anticancer, anti-HIV-1, and antimicrobial activity of some tricyclic triazino and triazolo[4,3-e]purine derivatives” (Med Chem Res, 2012).

Columns and labels:
Escherichia coli = assay: Antimicrobial activity against Escherichia coli 5933 after 24 hr by agar cup diffusion technique; type: functional
Staphylococcus aureus [1] = assay: Antimicrobial activity against Staphylococcus aureus NCTC 4163 after 24 hr by agar cup diffusion technique; type: functional
Saccharomyces cerevisiae = assay: Antimicrobial activity against Saccharomyces cerevisiae ATCC 9763 after 48 hr by agar cup diffusion technique; type: functional
Proteus vulgaris [2] = assay: Antimicrobial activity against Proteus vulgaris ATCC 49132 after 24 hr by agar cup diffusion technique; type: functional
Candida albicans = assay: Antimicrobial activity against Candida albicans NCTC 2708 after 48 hr by agar cup diffusion technique; type: functional
Bacillus spizizenii = assay: Antimicrobial activity against Bacillus subtilis subsp. spizizenii ATCC 6633 after 24 hr by agar cup diffusion technique; type: functional
Staphylococcus aureus [3] = assay: Antimicrobial activity against Staphylococcus aureus NCTC 4163 after 24 hr by two-fold serial dilution method; type: functional; conditions: NCTC 4163, 24 h
Pseudomonas aeruginosa [4] = assay: Antimicrobial activity against Pseudomonas aeruginosa ATCC 9027 after 24 hr by agar cup diffusion technique; type: functional
Pseudomonas aeruginosa [5] = assay: Antimicrobial activity against Pseudomonas aeruginosa ATCC 9027 after 24 hr by two-fold serial dilution method; type: functional; conditions: ATCC 9027, 24 h
Aspergillus niger [6] = assay: Antimicrobial activity against Aspergillus niger ATCC 16404 after 48 hr by agar cup diffusion technique; type: functional
MCF7 = assay: Anticancer activity against Homo sapiens (human) MCF7 cells assessed as cell growth at 100 uM after 48 hr by Alamar blue assay; type: functional; conditions: MCF7, 48 h, read-out: Activity
SF-268 = assay: Anticancer activity against Homo sapiens (human) SF268 cells assessed as cell growth at 100 uM after 48 hr by Alamar blue assay; type: functional; conditions: SF-268, 48 h, read-out: Activity
Salmonella typhi = assay: Antimicrobial activity against Salmonella enterica subsp. enterica serovar Typhi ATCC 13311 after 24 hr by agar cup diffusion technique; type: functional
NCI-H460 = assay: Anticancer activity against Homo sapiens (human) NCI-H460 cells assessed as cell growth at 100 uM after 48 hr by Alamar blue assay; type: functional; conditions: NCI-H460, 48 h, read-out: Activity
[7] = tested on: Human immunodeficiency virus 1; assay: Antiviral activity against Human immunodeficiency virus 1 infected CEM cells assessed as inhibition of virus-induced cytopathic effect at 2 X 10^-4 M by XTT assay; type: functional; conditions: Human immunodeficiency virus 1, CCRF-CEM
CCRF-CEM = assay: Cytotoxicity against Homo sapiens (human) CEM cells by XTT assay; type: cell-based
Proteus vulgaris [8] = assay: Antimicrobial activity against Proteus vulgaris ATCC 49132 after 24 hr by two-fold serial dilution method; type: functional; conditions: ATCC 49132, 24 h
[9] = tested on: Human immunodeficiency virus 1; assay: Antiviral activity against Human immunodeficiency virus 1 infected CEM cells assessed as inhibition of virus-induced cytopathic effect at 2 X 10^-5 M by XTT assay; type: functional; conditions: Human immunodeficiency virus 1, CCRF-CEM
Aspergillus niger [10] = assay: Antimicrobial activity against Aspergillus niger ATCC 16404 after 48 hr by two-fold serial dilution method; type: functional; conditions: ATCC 16404, 48 h

SMILES: CCSc1nnc2n(C)c3c(=O)n(C)c(=O)n(C)c3n12
- inhibition zone (IZ) (Escherichia coli): 12 mm
- inhibition zone (IZ) (Staphylococcus aureus [1]): 20 mm
- inhibition zone (IZ) (Saccharomyces cerevisiae): 13 mm
- inhibition zone (IZ) (Proteus vulgaris [2]): 19 mm
- inhibition zone (IZ) (Candida albicans): 11 mm
- inhibition zone (IZ) (Bacillus spizizenii): 13 mm
- MIC (Staphylococcus aureus [3]): < 200 µg/mL
- inhibition zone (IZ) (Pseudomonas aeruginosa [4]): 19 mm

SMILES: Cn1c(=O)c2c(n(C)c1=O)n1c(=S)[nH]nc1n2C
- inhibition zone (IZ) (Escherichia coli): 12 mm
- inhibition zone (IZ) (Staphylococcus aureus [1]): 24 mm
- inhibition zone (IZ) (Saccharomyces cerevisiae): 12 mm
- inhibition zone (IZ) (Proteus vulgaris [2]): 19 mm
- inhibition zone (IZ) (Candida albicans): 11 mm
- inhibition zone (IZ) (Bacillus spizizenii): 11 mm
- MIC (Staphylococcus aureus [3]): < 50 µg/mL
- inhibition zone (IZ) (Pseudomonas aeruginosa [4]): 21 mm
- MIC (Pseudomonas aeruginosa [5]): < 100 µg/mL

SMILES: Cn1c(=O)c2c(n(C)c1=O)n1c(-c3ccccc3)nnc1n2C
- inhibition zone (IZ) (Escherichia coli): 14 mm
- inhibition zone (IZ) (Aspergillus niger [6]): 16 mm
- inhibition zone (IZ) (Saccharomyces cerevisiae): 15 mm
- inhibition zone (IZ) (Proteus vulgaris [2]): 19 mm
- inhibition zone (IZ) (Candida albicans): 12 mm
- inhibition zone (IZ) (Bacillus spizizenii): 15 mm
- growth at 100 µM (MCF7): 84%
- growth at 100 µM (SF-268): 90%
- inhibition zone (IZ) (Salmonella typhi): 11 mm
- growth at 100 µM (NCI-H460): 98%
- inhibition zone (IZ) (Pseudomonas aeruginosa [4]): 17 mm

SMILES: CSc1nnc2n(C)c3c(=O)n(C)c(=O)n(C)c3n12
- inhibition zone (IZ) (Escherichia coli): 12 mm
- inhibition zone (IZ) (Staphylococcus aureus [1]): 20 mm
- inhibition at 200 µM [7]: 4.86%
- inhibition zone (IZ) (Saccharomyces cerevisiae): 12 mm
- inhibition zone (IZ) (Proteus vulgaris [2]): 19 mm
- inhibition zone (IZ) (Candida albicans): 11 mm
- IC50 (CCRF-CEM): > 200 µM
- MIC (Staphylococcus aureus [3]): < 200 µg/mL
- inhibition zone (IZ) (Pseudomonas aeruginosa [4]): 20 mm
- MIC (Pseudomonas aeruginosa [5]): < 200 µg/mL

SMILES: Cn1c(=O)c2[nH]c(/N=N/c3c(N)n[nH]c3N)nc2n(C)c1=O
- inhibition at 200 µM [7]: 30.5%
- inhibition zone (IZ) (Saccharomyces cerevisiae): 12 mm
- inhibition zone (IZ) (Proteus vulgaris [2]): 14 mm
- inhibition zone (IZ) (Candida albicans): 11 mm
- IC50 (CCRF-CEM): > 200 µM
- inhibition zone (IZ) (Bacillus spizizenii): 10 mm

SMILES: Cn1c(=O)c2c(n(C)c1=O)n1c(SCc3ccccc3)nnc1n2C
- inhibition zone (IZ) (Escherichia coli): 12 mm
- inhibition zone (IZ) (Staphylococcus aureus [1]): 26 mm
- inhibition at 200 µM [7]: 35.5%
- inhibition zone (IZ) (Saccharomyces cerevisiae): 14 mm
- inhibition zone (IZ) (Proteus vulgaris [2]): 18 mm
- inhibition zone (IZ) (Candida albicans): 11 mm
- IC50 (CCRF-CEM): > 200 µM
- MIC (Staphylococcus aureus [3]): < 25 µg/mL
- inhibition zone (IZ) (Pseudomonas aeruginosa [4]): 19 mm

SMILES: CCOC(=O)c1n[nH]c2nc3c(=O)n(C)c(=O)n(C)c3n2c1=N
- MIC (Proteus vulgaris [8]): < 100 µg/mL
- inhibition zone (IZ) (Escherichia coli): 15 mm
- inhibition zone (IZ) (Staphylococcus aureus [1]): 16 mm
- inhibition zone (IZ) (Saccharomyces cerevisiae): 15 mm
- inhibition zone (IZ) (Proteus vulgaris [2]): 22 mm
- inhibition zone (IZ) (Candida albicans): 17 mm
- inhibition zone (IZ) (Bacillus spizizenii): 14 mm
- growth at 100 µM (MCF7): 93%
- growth at 100 µM (SF-268): 98%
- growth at 100 µM (NCI-H460): 99%
- inhibition zone (IZ) (Pseudomonas aeruginosa [4]): 20 mm

SMILES: Cn1c(=O)c2nc3[nH]nc(C(=O)O)c(=O)n3c2n(C)c1=O
- MIC (Proteus vulgaris [8]): < 200 µg/mL
- inhibition zone (IZ) (Escherichia coli): 13 mm
- inhibition zone (IZ) (Staphylococcus aureus [1]): 14 mm
- inhibition zone (IZ) (Aspergillus niger [6]): 20 mm
- inhibition zone (IZ) (Saccharomyces cerevisiae): 14 mm
- inhibition zone (IZ) (Proteus vulgaris [2]): 21 mm
- inhibition zone (IZ) (Candida albicans): 13 mm
- IC50 (CCRF-CEM): > 200 µM
- inhibition zone (IZ) (Bacillus spizizenii): 14 mm
- inhibition at 20 µM [9]: 3.73%
- MIC (Aspergillus niger [10]): < 200 µg/mL
- inhibition zone (IZ) (Pseudomonas aeruginosa [4]): 16 mm
